Assay results taken from ChEMBL document CHEMBL3044672, “N9- and N7-(Chloromethyl Phenymethyl)Chloropurine Derivatives from , '-Dichloroxylenes: Synthesis and Anticancer Activity” (2005).

Experiments:
Format in all cases: functional
SF-268 = test: Cytotoxicity against Homo sapiens (human) SF268 cells after 48 hr by sulforhodamine B assay; conditions: SF-268, 48 h
K562 = test: Cytotoxicity against Homo sapiens (human) K562 cells after 48 hr by sulforhodamine B assay; conditions: K562, 48 h
UACC-257 = test: Cytotoxicity against Homo sapiens (human) UACC257 cells after 48 hr by sulforhodamine B assay; conditions: UACC-257, 48 h
NCI-H460 [1] = test: Cytotoxicity against Homo sapiens (human) NCI-H460 cells assessed as cell growth at 10^-4 M after 48 hr by Alamar blue assay; conditions: NCI-H460, 48 h, read-out: Activity
SNB-75 = test: Cytotoxicity against Homo sapiens (human) SNB75 cells after 48 hr by sulforhodamine B assay; conditions: SNB-75, 48 h
M14 = test: Cytotoxicity against Homo sapiens (human) M14 cells after 48 hr by sulforhodamine B assay; conditions: M14, 48 h
MCF7 [2] = test: Cytotoxicity against Homo sapiens (human) MCF7 cells after 48 hr by sulforhodamine B assay; conditions: MCF7, 48 h
NCI-H522 = test: Cytotoxicity against Homo sapiens (human) NCI-H522 cells after 48 hr by sulforhodamine B assay; conditions: NCI-H522, 48 h
CAKI-1 = test: Cytotoxicity against Homo sapiens (human) Caki1 cells after 48 hr by sulforhodamine B assay; conditions: CAKI-1, 48 h
SK-MEL-28 = test: Cytotoxicity against Homo sapiens (human) SK-MEL-28 cells after 48 hr by sulforhodamine B assay; conditions: SK-MEL-28, 48 h
OVCAR-5 = test: Cytotoxicity against Homo sapiens (human) OVCAR5 cells after 48 hr by sulforhodamine B assay; conditions: OVCAR-5, 48 h
TK-10 = test: Cytotoxicity against Homo sapiens (human) TK10 cells after 48 hr by sulforhodamine B assay; conditions: TK-10, 48 h
MCF7 [3] = test: Cytotoxicity against Homo sapiens (human) MCF7 cells assessed as cell growth at 10^-4 M after 48 hr by Alamar blue assay; conditions: MCF7, 48 h, read-out: Activity
HT-29 = test: Cytotoxicity against Homo sapiens (human) HT-29 cells after 48 hr by sulforhodamine B assay; conditions: HT-29, 48 h
OVCAR-8 = test: Cytotoxicity against Homo sapiens (human) OVCAR8 cells after 48 hr by sulforhodamine B assay; conditions: OVCAR-8, 48 h
NCI-H460 [4] = test: Cytotoxicity against Homo sapiens (human) NCI-H460 cells after 48 hr by sulforhodamine B assay; conditions: NCI-H460, 48 h
Hs-578T = test: Cytotoxicity against Homo sapiens (human) Hs 578T cells after 48 hr by sulforhodamine B assay
HOP-92 = test: Cytotoxicity against Homo sapiens (human) HOP92 cells after 48 hr by sulforhodamine B assay; conditions: HOP-92, 48 h
NCI-H226 = test: Cytotoxicity against Homo sapiens (human) NCI-H226 cells after 48 hr by sulforhodamine B assay; conditions: NCI-H226, 48 h
NCI-H23 = test: Cytotoxicity against Homo sapiens (human) NCI-H23 cells after 48 hr by sulforhodamine B assay; conditions: NCI-H23, 48 h
BT-549 = test: Cytotoxicity against Homo sapiens (human) BT549 cells after 48 hr by sulforhodamine B assay; conditions: BT-549, 48 h
U-251 = test: Cytotoxicity against Homo sapiens (human) U251 cells after 48 hr by sulforhodamine B assay; conditions: U-251, 48 h
[5] = Cytotoxicity against Homo sapiens (human) NCI-ADR-RES cells after 48 hr by sulforhodamine B assay
MDA-MB-435 = test: Cytotoxicity against Homo sapiens (human) MDA-MB-435 cells after 48 hr by sulforhodamine B assay; conditions: MDA-MB-435, 48 h
SN12C = test: Cytotoxicity against Homo sapiens (human) SN12C cells after 48 hr by sulforhodamine B assay
[6] = read-out: LC50 (the source's name)

ClCc1ccccc1Cn1cnc2c(Cl)nc(Cl)nc21
GI50 (SF-268): 1.77 µM
TGI (SF-268): 4.16 µM
GI50 (K562): 0.15 µM
TGI (K562): 0.37 µM
CC50 (K562; [6]): 0.91 µM
GI50 (UACC-257): 1.82 µM
LC50 (concentration killing 50% of cells) (UACC-257): 8.51 µM
TGI (UACC-257): 3.89 µM
growth at 100 µM (NCI-H460 [1]): 0%
GI50 (SNB-75): 1.54 µM
TGI (SNB-75): 3.54 µM
GI50 (M14): 1.38 µM
LC50 (M14): 5.75 µM
TGI (M14): 2.81 µM
GI50 (MCF7 [2]): 0.81 µM
LC50 (concentration killing 50% of cells) (MCF7 [2]): > 100 µM
TGI (MCF7 [2]): 1.82 µM
GI50 (NCI-H522): 0.58 µM
TGI (NCI-H522): 1.99 µM
CC50 (NCI-H522; [6]): 6.76 µM
GI50 (CAKI-1): 0.36 µM
TGI (CAKI-1): 0.89 µM
CC50 (CAKI-1; [6]): 3.09 µM
GI50 (SK-MEL-28): 1.23 µM
TGI (SK-MEL-28): 3.31 µM
GI50 (OVCAR-5): 1.58 µM
TGI (OVCAR-5): 2.95 µM
CC50 (OVCAR-5; [6]): 5.62 µM
GI50 (TK-10): 1.45 µM
TGI (TK-10): 2.88 µM
CC50 (TK-10; [6]): 5.62 µM
growth at 100 µM (MCF7 [3]): 0%
GI50 (HT-29): 0.42 µM
TGI (HT-29): > 100 µM
CC50 (HT-29; [6]): > 100 µM
GI50 (OVCAR-8): 1.23 µM
LC50 (concentration killing 50% of cells) (OVCAR-8): 6.45 µM
TGI (OVCAR-8): 2.81 µM
GI50 (NCI-H460 [4]): 3.31 µM
TGI (NCI-H460 [4]): 8.71 µM
CC50 (NCI-H460 [4]; [6]): > 100 µM
GI50 (Hs-578T): 1.17 µM
LC50 (Hs-578T): > 100 µM
TGI (Hs-578T): 3.54 µM
GI50 (HOP-92): 0.35 µM
TGI (HOP-92): 0.97 µM
GI50 (NCI-H226): 1.73 µM
TGI (NCI-H226): 3.38 µM
CC50 (NCI-H226; [6]): 6.76 µM
GI50 (NCI-H23): 1.51 µM
TGI (NCI-H23): 3.09 µM
CC50 (NCI-H23; [6]): 6.31 µM
GI50 (BT-549): 0.45 µM
LC50 (50% lethal concentration) (BT-549): 4.16 µM
TGI (BT-549): 1.47 µM
GI50 (U-251): 0.31 µM
LC50 (concentration killing 50% of cells) (U-251): 4.57 µM
TGI (U-251): 1.02 µM
GI50 [5]: 1.51 µM
LC50 (concentration killing 50% of cells) [5]: 6.16 µM
TGI [5]: 3.02 µM
GI50 (MDA-MB-435): 1.62 µM
LC50 (MDA-MB-435): 6.45 µM
TGI (MDA-MB-435): 3.23 µM
GI50 (SN12C): 0.72 µM
LC50 (50% lethal concentration) (SN12C): 4.67 µM
TGI (SN12C): 2.04 µM
